In general, solubility refers to the dissolved amount per volume that the medium holds.

We go through two compounds from patent US5726164A, “Nanosuspensions for intravenous administration” (Novartis Corporation, priority 1995, dated 1998).

A short description of data set [1]: water solubility. The conditions noted are these: at room temperature. Type of data set: physicochemical. From the text:
A staurosporin derivative that is sparingly soluble in water is disclosed, for example, in U.S. Pat. No. 5,093,330 and is derived from staurosporin by additional substitution of the free hydrogen atom at the nitrogen of the N-methylamino substituent. Poor solubility in water is a characteristic property of staurosporin derivatives, which renders them unsuitable for intravenous dosage forms.

For data set [2] the following is noted: cited from earlier work.

SMILES strings stand for the structures. “Also recorded” adds a separate entry of the source.

In data set [1], `CO[C@@H]1[C@H](N(C)C(=O)c2ccccc2)C[C@H]2O[C@]1(C)n1c3ccccc3c3c4c(c5c6ccccc6n2c5c31)C(=O)NC4` [N-benzoyl-staurosporin] had a solubility of less than 0.1 µg/mL.

Take `CN[C@@H]1C[C@H]2O[C@@](C)([C@@H]1OC)n1c3ccccc3c3c4c(c5c6ccccc6n2c5c31)C(=O)NC4` [staurosporin]: in data set [2], the “water solubility (in words)” value is “particularly poor water solubility; also recorded: extremely low water solubility”.
